Experimental data taken from patent US20260085073A1, “PYRAZOLYLCARBOXAMIDE COMPOUNDS AND THEIR USE IN THERAPY” (Hotspot Therapeutics, Inc., priority 2022, published 2026).
pIC50: −log10 of the molar value.

Target: T1, MALT1 (Homo sapiens, UniProt Q9UDY8)
T1 construct: Avi-tagged FL MALT-1 (Pharmaron, stored at −70° C.); Avi-tag
T1 sequence (Q9UDY8 1-824): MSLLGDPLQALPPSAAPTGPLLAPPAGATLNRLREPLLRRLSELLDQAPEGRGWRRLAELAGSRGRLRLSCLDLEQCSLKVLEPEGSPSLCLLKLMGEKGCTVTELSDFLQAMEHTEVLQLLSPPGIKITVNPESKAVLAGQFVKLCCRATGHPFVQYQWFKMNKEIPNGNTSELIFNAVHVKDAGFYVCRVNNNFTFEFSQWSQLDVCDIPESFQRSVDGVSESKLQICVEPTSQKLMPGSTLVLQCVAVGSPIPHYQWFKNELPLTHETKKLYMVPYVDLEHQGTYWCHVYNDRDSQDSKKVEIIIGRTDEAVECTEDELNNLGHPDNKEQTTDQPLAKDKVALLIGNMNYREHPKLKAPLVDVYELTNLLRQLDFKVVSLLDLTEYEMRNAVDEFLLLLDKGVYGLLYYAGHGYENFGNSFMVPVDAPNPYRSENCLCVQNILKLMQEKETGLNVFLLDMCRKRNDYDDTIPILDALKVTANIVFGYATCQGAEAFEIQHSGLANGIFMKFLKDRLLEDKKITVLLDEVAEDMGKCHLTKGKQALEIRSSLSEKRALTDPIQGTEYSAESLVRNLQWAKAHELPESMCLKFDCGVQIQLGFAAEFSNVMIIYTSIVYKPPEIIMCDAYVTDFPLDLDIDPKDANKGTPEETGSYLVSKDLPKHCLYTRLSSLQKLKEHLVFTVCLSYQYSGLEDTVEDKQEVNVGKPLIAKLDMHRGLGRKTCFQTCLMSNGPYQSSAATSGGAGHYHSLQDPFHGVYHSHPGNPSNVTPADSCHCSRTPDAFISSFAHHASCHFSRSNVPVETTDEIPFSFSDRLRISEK
Assay: MALT1 inhibition assay (MALT-1 Fluorogenic Peptide Cleavage Assay, Ac-LRSR-AMC substrate)
Assay type: biochemical
Details: Avi-tagged FL MALT-1, 30 min pre-incubation, 90 min reaction at room temperature, fluorescence intensity
Method: Example 71—MALT1 Inhibition Assay
Compounds were tested for ability to bind to MALT1.
Inhibition of MALT1 activity by the presence of small molecules was evaluated using MALT-1 Fluorogenic Peptide Cleavage Assay. The assay utilizes a quenched AMC-labelled peptide that contains the MALT-1 recognition sequence and cleavage site (LRSR). MALT-1 mediated cleavage of the peptide relieves the quenching and leads to an increase in fluorescence at excitation (342 nm) and emission (441 nm).
The following reagents were obtained commercially and used to prepare standard reagent formulations as further described below: N-2-hydroxyethylpiperazine-N-2-ethane sulfonic acid (HEPES) (1 M, pH 7.5, stored at 4° C.), sodium citrate (stored at RT), tris(2-carboxyethyl) phosphine hydrochloride (T-CEP) (500 mM, stored at −20° C.), ethylenediaminetetraacetic acid (EDTA) (500 mM, stored at RT), dimethylsulfoxide (DMSO, stored at RT), 3-[(3-cholamidopropyl)dimethylammonio]-1-propane sulphate (CHAPS) (stored at RT), dimethylsulfoxide (DMSO), DMSO (Fisher Scientific, stored at RT), Avi-tagged FL MALT-1 (Pharmaron, stored at −70° C.), Ac-LRSR-AMC Peptide (SM Biochemicals, stored at −20° C.), and ultrapure water (MILLI-QR).
The standard reagent formulations used in this assay were prepared and stored as follows. A 1.1 M solution of sodium citrate (161.3 g, 500 mL) was prepared and stored at room temperature. A 10% (w/v) CHAPS solution (2.0 g, 20 mL) was prepared and stored at 4° C. A 500 mM HEPES solution having pH of 6.89 was prepared from 200 mL of a 1 M HEPES solution having a pH of 7.5 using concentrated hydrochloric acid and brought to a final volume of 400 mL with MILLI-QR H2O. The substrate, 10 mM Ac-LRSR-AMC Peptide, was prepared (10 mg, 1.370 mL DMSO) and stored at −20° C.
Compounds were plated to provide a 2% DMSO final concentration using a ProxiPlate-384 Plus F Black 384-shallow well microplate. The assay-ready plates were equilibrated to room temperature. A reaction buffer (30 mL total volume) was prepared by combining HEPES (pH 6.89, 25 mM, 1.5 mL), sodium citrate (660 mM, 18.0 mL), T-CEP (1 mM, 0.06 mL), EDTA ([…], 0.06 mL), CHAPS (0.05%, 0.15 mL), DMSO (2%, 0.6 mL), and MILLI-QR H2O (10.23 mL; 9.63 mL when backfilled to 2% DMSO) followed by thorough mixing. DMSO was added only when compound plates had not been DMSO-backfilled to 2%.
MALT-1 was thawed and kept on ice. Peptide substrate was thawed on the bench under ambient conditions. A MALT-1 enzyme working stock was prepared from Avi-tagged FL MALT-1 (40 nM in a prepared reagent volume of 16.5 μL) and the reaction buffer (13.0 mL). MALT1 working stock (5 μL) was added to each well of the microplate. MALT-1 was pre-incubated with compounds for 30 minutes at room temperature.
Two substrate working stocks (Km and 10×Km) were prepared. The 1×Km substrate was prepared from Ac-LRSR-AMC Peptide (50 μM in a prepared reagent volume of 35.0 μL) and the reaction buffer (6.965 mL). The 10×Km substrate was prepared from Ac-LRSR-AMC Peptide (280 μM in a prepared reagent volume of 196.0 μL) and the reaction buffer (6.804 mL). The reaction was initiated by the addition of substrate working stock (5 μL, 50 μM) to Km plates and the addition of substrate working stock (5 μL 280 μM) to 10×Km plates. The plates were covered and incubated on the bench at room temperature for 90 minutes.
Fluorescence intensity was determined using a CLARIOstar microplate reader (BMG LABTECH) using the optimised AMC mode. Before taking readings, a 70% gain was applied on the neutral control well. Compound data were normalised to % Inhibition and used to plot sigmoidal concentration response curves to yield various parameters including IC50.

Compound	pIC50
Cn1nc(-c2cccc3c2OCO3)c(C(F)(F)F)c1C(=O)Nc1cnc(-n2nccn2)c(C#N)c1 [Compound I-43]	> 6.30
Cn1nc(-c2cccc3c2OCCO3)c(C(F)(F)F)c1C(=O)Nc1ccnc(C(F)(F)F)c1 [Compound I-44]	5.60 to 6.30
Cn1nc(-c2ccc(F)cc2Cl)c(C(F)(F)F)c1C(=O)Nc1ccnc(C(F)(F)F)c1 [Compound I-45]	> 6.30
Cn1nc(-c2cccc3[nH]ncc23)c(C(F)(F)F)c1C(=O)Nc1ccnc(C(F)(F)F)c1 [Compound I-46]	5.60 to 6.30
Cn1nc(-c2cccc3occc23)c(C(F)(F)F)c1C(=O)Nc1ccnc(C(F)(F)F)c1 [Compound I-47]	> 6.30
Cn1nc(-c2cccn(C)c2=O)c(C(F)(F)F)c1C(=O)Nc1ccnc(C(F)(F)F)c1 [Compound I-48]	< 5.00
Cn1nc(-c2c(Cl)ccc3c2OCO3)c(C(F)(F)F)c1C(=O)Nc1ccnc(C(F)(F)F)c1 [Compound I-49]	> 6.30
Cn1nc(-c2ccc(F)c3c2OCO3)c(C(F)(F)F)c1C(=O)Nc1ccnc(C(F)(F)F)c1 [Compound I-50]	> 6.30
Cn1nc(-c2cccc3c2OCCN3)c(C(F)(F)F)c1C(=O)Nc1ccnc(C(F)(F)F)c1 [Compound I-51]	< 5.00
COc1cccc(-c2nn(C)c(C(=O)Nc3ccnc(C(F)(F)F)c3)c2C(F)(F)F)c1OC [Compound I-52]	5.60 to 6.30
Cn1nc(-c2cccc3c2NCCO3)c(C(F)(F)F)c1C(=O)Nc1ccnc(C(F)(F)F)c1 [Compound I-54]	5.60 to 6.30
Cc1ccc2ncccc2c1-c1nn(C)c(C(=O)Nc2ccnc(C(F)(F)F)c2)c1C(F)(F)F [Compound I-55]	5.60 to 6.30
Cn1nc(-c2cccc3c2ccn3C)c(C(F)(F)F)c1C(=O)Nc1ccnc(C(F)(F)F)c1 [Compound I-56]	5.60 to 6.30
Cn1nc(-c2cccc3c2ccn3CC(=O)O)c(C(F)(F)F)c1C(=O)Nc1ccnc(C(F)(F)F)c1 [Compound I-57]	< 5.00
Cn1nc(-c2cccc3ncccc23)c(C(F)(F)F)c1C(=O)Nc1cnc(-n2nccn2)c(Cl)c1 [Compound I-58]	> 6.30
Cn1nc(-c2ccccc2Cl)c(C(F)(F)F)c1C(=O)Nc1ccnc(C(F)(F)F)c1 [Compound I-59]	> 6.30
Cn1nc(-c2cccc3ncsc23)c(C(F)(F)F)c1C(=O)Nc1ccnc(C(F)(F)F)c1 [Compound I-60]	> 6.30
Cn1nc(-c2cccc3cnn(C)c23)c(C(F)(F)F)c1C(=O)Nc1ccnc(C(F)(F)F)c1 [Compound I-61]	5.60 to 6.30
Cn1cc2c(-c3nn(C)c(C(=O)Nc4ccnc(C(F)(F)F)c4)c3C(F)(F)F)cccc2n1 [Compound I-62]	5.00 to 5.60
Cn1nc(-c2cccc3c(=O)[nH]ccc23)c(C(F)(F)F)c1C(=O)Nc1ccnc(C(F)(F)F)c1 [Compound I-63]	> 6.30
Cn1nc(-c2cccn3ncnc23)c(C(F)(F)F)c1C(=O)Nc1ccnc(C(F)(F)F)c1 [Compound I-64]	5.60 to 6.30
Cn1nc(-c2cccc3c2CNC3=O)c(C(F)(F)F)c1C(=O)Nc1ccnc(C(F)(F)F)c1 [Compound I-65]	> 6.30

Compound	pIC50
Cn1nc(-c2ccnc3ccsc23)c(C(F)(F)F)c1C(=O)Nc1ccnc(C(F)(F)F)c1 [Compound I-66]	5.60 to 6.30
Cn1nc(-c2cccc3cnsc23)c(C(F)(F)F)c1C(=O)Nc1ccnc(C(F)(F)F)c1 [Compound I-67]	< 5.00
COc1cccc(-c2nn(C)c(C(=O)Nc3ccnc(C(F)(F)F)c3)c2C(F)(F)F)c1Cl [Compound I-68]	5.60 to 6.30
Cn1nc(-c2cnn3ccccc23)c(C(F)(F)F)c1C(=O)Nc1ccnc(C(F)(F)F)c1 [Compound I-69]	5.00 to 5.60
Cn1nc(-c2cncc(C#N)c2)c(C(F)(F)F)c1C(=O)Nc1ccnc(C(F)(F)F)c1 [Compound I-70]	< 5.00
Cn1nc(-c2cnc3n2CCOC3)c(C(F)(F)F)c1C(=O)Nc1ccnc(C(F)(F)F)c1 [Compound I-71]	< 5.00
Cn1nc(-c2ccnc3c2OCO3)c(C(F)(F)F)c1C(=O)Nc1ccnc(C(F)(F)F)c1 [Compound I-72]	5.60 to 6.30
Cn1nc(-c2csc3ccncc23)c(C(F)(F)F)c1C(=O)Nc1ccnc(C(F)(F)F)c1 [Compound I-73]	5.60 to 6.30
Cn1nc(-c2cnn3ccncc23)c(C(F)(F)F)c1C(=O)Nc1ccnc(C(F)(F)F)c1 [Compound I-74]	< 5.00
Cn1nc(-c2cc(O)ccc2Cl)c(C(F)(F)F)c1C(=O)Nc1ccnc(C(F)(F)F)c1 [Compound I-75]	5.60 to 6.30
CN(C)c1cc(-c2nn(C)c(C(=O)Nc3ccnc(C(F)(F)F)c3)c2C(F)(F)F)ccn1 [Compound I-76]	< 5.00
Cn1nc(-c2cnc(N)c3ccccc23)c(C(F)(F)F)c1C(=O)Nc1ccnc(C(F)(F)F)c1 [Compound I-77]	5.60 to 6.30
Cn1nc(-c2cccc3c(N)nccc23)c(C(F)(F)F)c1C(=O)Nc1ccnc(C(F)(F)F)c1 [Compound I-78]	< 5.00
Cc1ncccc1-c1nn(C)c(C(=O)Nc2ccnc(C(F)(F)F)c2)c1C(F)(F)F [Compound I-79]	5.00 to 5.60
Cc1cncc(-c2nn(C)c(C(=O)Nc3ccnc(C(F)(F)F)c3)c2C(F)(F)F)c1 [Compound I-80]	< 5.00
Cn1nc(-c2cncc(F)c2)c(C(F)(F)F)c1C(=O)Nc1ccnc(C(F)(F)F)c1 [Compound I-81]	5.00 to 5.60
Cn1nc(-c2cccc(S(C)(=O)=O)c2)c(C(F)(F)F)c1C(=O)Nc1ccnc(C(F)(F)F)c1 [Compound I-82]	5.00 to 5.60
Cn1nc(-c2ccc(F)nc2F)c(C(F)(F)F)c1C(=O)Nc1ccnc(C(F)(F)F)c1 [Compound I-83]	5.00 to 5.60
Cc1coc2c(-c3nn(C)c(C(=O)Nc4ccnc(C(F)(F)F)c4)c3C(F)(F)F)cccc12 [Compound I-84]	5.60 to 6.30
Cn1nc(N2CCCc3ccccc32)c(C(F)(F)F)c1C(=O)Nc1ccnc(C(F)(F)F)c1 [Compound I-85, 3-(3,4-dihydroquinolin-1 (2H)-yl)-1-methyl-4-(trifluoromethyl)-N-(2-(trifluoromethyl)pyridin-4-yl)-1H-pyrazole-5-carboxamide]	5.60 to 6.30
Cn1nc(Nc2ccccc2)c(C(F)(F)F)c1C(=O)Nc1cnc(-n2nccn2)c(Cl)c1 [Compound I-86]	> 6.30
